{"source": "patent US10844091B2", "about": "(priority 2017, dated 2020)", "key": {"[1]": {"test": "Brain weight coefficient (BWC) in rat models with Alzheimer's disease", "format": "in vivo", "details": "statistically insignificant; donepezil 1 mg/kg, tetrapeptide 0.1 mg/kg", "procedure": "The drugs were administered daily, once a day.\nThe OF and EE tests were conducted on the 1st day, PST—on the 2nd day, CPAR—on the 1st and 10th day post treatment with the preparations. […] The antiamnesic action (AA) in the CPAR test was calculated using Butler's formula [K. S. Radionova. […] After that, the animals were removed from the experiment by administering a narcotic, followed by decapitation. The brain was extracted and weighed, and the brain weight coefficient (BWC) was calculated. Immediately after extraction, the brain was frozen in liquid nitrogen and used in subsequent biochemical and histochemical studies. Glucose levels in whole arterial (common carotid artery) and venous (venous cerebral sinus) blood were determined by the glucose oxidase test, the difference in the arterial-venous glucose content was calculated (glucose consumption marker). The levels of average weight molecules—the toxic products of cell biodegradation damaged during the disease (nucleoside derivatives, peptoids, glucuronic acid salts, etc.) in the blood serum (AWM) were calculated [A. N. Kovalevsky. Notes on the screening method of determination average weight molecules/A. N. Kovalevsky, O. Ye. Nifantiev//Lab. Science. […] 35-39]."}, "[2]": {"tested_on": "intact animals and animals with reserpine-induced depression", "test": "Open Field Test, intact animals and animals with reserpine-induced depression", "format": "in vivo, rat", "details": "for Emotional reactions and concomitant vegetative state (total number of grooming acts, fecal boluses, and urinations) / Orientation and exploratory activity (number of explored openings and upright positions) / Sum of all results / Locomotor activity (number of squares): imipramine 15 mg/kg i.p., tetrapeptide (LYS) 0.02 mg/kg i.n.", "procedure": "The experiment was conducted on 16 white random-bred adult male rats weighing:\n180-220 g. The antidepressant activity of tetrapeptide (LYS), a neuroprotector, at a 0.02 mg/kg dose intranasally (i.n.) was evaluated. […] The experiment was conducted in two stages. […] 25-30 min. prior to the start of the experiment, the animals were administered their respective drugs. The animals in the control group were administered 0.9% NaCl solution i.p. and i.n. in the volume equal to the volume of the medications. After that, the animals of all groups were placed in the open field (OF) for 3 min., and their locomotor (number of crossed squares), orientation, and exploratory (number of upright positions and explored openings) activity as well as their emotional reactions (fecal boluses, urination, grooming) were evaluated. The indicators of depression in the animals (latent immobilization period, the number of such instances, and their total duration) were evaluated in the Popsolt swim test (PST) over 6 min. In the next 2 days, all the medications were administered at the same dose once a day; the last administration—30 min before the depressogenic sympatholytics of reserpine. Reserpine was administered on the 3rd day (2nd stage of the experiment) at a 4 mg/kg dose i.p. (as a suspension stabilized with Tween-80). Animals in all 3 groups were evaluated 6-7 hr. later in the OF and PST.\nTest results were statistically processed. When the data distribution was normal, the parametric Student's t-distribution test was applied, when it was absent, the non-parametric MannWhitney U-test was used. When processing the results in an alternative form (presence/absence of the indicator), Fisher's angular transformation φ was applied. Wilcoxon paired t-criterium test was used for the intra-group statistical evaluation of the changed in the animal test results prior and post simulated depression. The results were considered to be statistically significant when p<0.05."}, "[3]": {"details": "R - reserpine-induced depression"}}, "note": "Marks after values point to notes of the source that are not given here. Non-standard residues stand in square brackets, D forms with d.", "data": [{"substance": "acetyl-D-Lys-Lys-Arg-Arg-amide (Ac-[dK]KRR-NH2; SMILES CC(=O)N[C@H](CCCCN)C(=O)N[C@@H](CCCCN)C(=O)N[C@@H](CCCNC(=N)N)C(=O)N[C@@H](CCCNC(=N)N)C(N)=O) [tetrapeptide (LYS), peptide acetyl-X-ARG-ARG-amide, X = D- and L-amino acid residues of lysine]", "values": [{"measurement": "reduction of the brain weight coefficient (BWC)", "setting": "[1]", "value": 14.3, "unit": "%"}, {"measurement": "Emotional reactions and concomitant vegetative state (total number of grooming acts, fecal boluses, and urinations)", "setting": "[2]; I - intact animals", "value": "1.8 ± 0.77^"}, {"measurement": "Orientation and exploratory activity (number of explored openings and upright positions)", "setting": "[2]; I - intact animals", "value": "5.8 ± 0.77"}, {"measurement": "Sum of all results", "setting": "[2]; I - intact animals", "value": "11.6 ± 2.49*^"}, {"measurement": "Locomotor activity (number of squares)", "setting": "[2]; I - intact animals, 3 min", "value": "4.0 ± 1.34*^"}, {"measurement": "Locomotor activity (number of squares)", "setting": "[2]; R - reserpine-induced depression (4 mg/kg i.p.)", "value": "3.4 ± 2.4"}, {"measurement": "Emotional reactions and concomitant vegetative state (total number of grooming acts, fecal boluses, and urinations)", "setting": "[2]; [3]", "value": "0.2 ± 0.2"}, {"measurement": "Orientation and exploratory activity (number of explored openings and upright positions)", "setting": "[2]; [3]", "value": "4.6 ± 2.4"}, {"measurement": "Sum of all results", "setting": "[2]; [3]", "value": "8.2 ± 4.98"}, {"measurement": "Emotional reactions and concomitant vegetative state, % change reserpine-induced depression vs. intact animals", "setting": "[2]; R vs I", "value": "(−88.9%) ®"}, {"measurement": "Locomotor activity, % change reserpine-induced depression vs. intact animals", "setting": "[2]; R vs I", "value": "(−15.0%)"}, {"measurement": "Orientation and exploratory activity, % change reserpine-induced depression vs. intact animals", "setting": "[2]; R vs I", "value": "(−20.69%)"}, {"measurement": "Sum of all results, % change reserpine-induced depression vs. intact animals", "setting": "[2]; R vs I", "value": "(−29.3%)"}, {"measurement": "decrease of emotional reaction level compared to intact animals", "setting": "[2]; reserpine-induced depression", "value": 9, "unit": "times"}, {"measurement": "reduction of locomotor activity (crossed squares) compared to intact animals", "setting": "[2]; reserpine-induced depression", "value": 15, "unit": "%"}, {"measurement": "reduction of orientation and exploratory activity compared to intact animals", "setting": "[2]; reserpine-induced depression", "value": 20.7, "unit": "%"}, {"measurement": "reduction of the sum of all types of activities compared to intact animals", "setting": "[2]; reserpine-induced depression", "value": 29.3, "unit": "%"}]}]}
